Measurements: ChEMBL document CHEMBL5523699, “Exploring novel pyrazole-nitroimidazole hybrids: Synthesis and antiprotozoal activity against the human pathogen trichomonas vaginalis” (Bioorg Med Chem, 2024)

Key:
Trichomonas vaginalis [1] = assay: Antiparasitic activity against Trichomonas vaginalis JT assessed as inhibition of parasite growth incubated for 48 hrs by flow cytometric analysis; type: functional, organism-based
Trichomonas vaginalis [2] = assay: Antiparasitic activity against Trichomonas vaginalis JT assessed as inhibition of parasite growth incubated for 24 hrs by flow cytometric analysis; type: functional, organism-based
[3] = Cytotoxicity against human HeLa cells assessed as reduction in cell viability incubated for 48 hrs by MTT assay; type: toxicity, cell-based
[4] = Cytotoxicity against human HeLa cells assessed as reduction in cell viability incubated for 24 hrs by MTT assay; type: toxicity, cell-based
[5] = Selectivity index, ratio of CC50 for cytotoxicity against human […] cells incubated for 24 hrs to IC50 for antiparasitic activity against Trichomonas vaginalis JT assessed as inhibition of parasite growth incubated for 24 hrs; type: toxicity, cell-based; conditions: read-out: Ratio CC50/IC50
[6] = Selectivity index, ratio of CC50 for cytotoxicity against human […] cells incubated for 48 hrs to IC50 for antiparasitic activity against Trichomonas vaginalis JT assessed as inhibition of parasite growth incubated for 48 hrs; type: toxicity, cell-based; conditions: read-out: Ratio CC50/IC50
Trichomonas vaginalis [7] = assay: Potency index, ratio of metronidazole IC50 to test compound IC50 for antiparasitic activity against Trichomonas vaginalis JT assessed as inhibition of parasite growth incubated for 48 hrs by flow cytometric analysis; type: functional
Trichomonas vaginalis [8] = assay: Selectivity index, ratio of IC50 for antiparasitic activity against Trichomonas vaginalis JT assessed as inhibition of parasite growth incubated for 24 hrs to IC50 for antiparasitic activity against Trichomonas vaginalis JT assessed as inhibition of parasite growth incubated for 48 hrs; type: functional
Trichomonas vaginalis [9] = assay: Selectivity index, ratio of IC50 for antiparasitic activity against Trichomonas vaginalis JT assessed as inhibition of parasite growth incubated for 48 hrs to IC50 for antiparasitic activity against Trichomonas vaginalis JT assessed as inhibition of parasite growth incubated for 24 hrs; type: functional

Compound | IC50 (Trichomonas vaginalis [1]) [µM] | IC50 (Trichomonas vaginalis [2]) [µM] | CC50 at 48 h [3] [µM] | CC50 at 24 h [4] [µM] | selectivity ratio at 24 h [5] | selectivity ratio at 48 h [6] | Ratio IC50 (Trichomonas vaginalis [7]) | Ratio IC50 (Trichomonas vaginalis [8]) | Ratio IC50 (Trichomonas vaginalis [9])
O=[N+]([O-])c1cn(CCO)cn1 | 40.6 | 19.9 | 212 | 120 | 6 | 5.22 |  |  | 
O=C(OCCn1cnc([N+](=O)[O-])c1)c1cnn(-c2ccc(Cl)c(Cl)c2)c1 | 35.5 | 5.3 | 313 | 584 | 110 | 8.81 |  |  | 
O=C(OCCn1cnc([N+](=O)[O-])c1)c1cnn(-c2ccc(F)cc2)c1 | 3.8 | 10.1 | 182 | 214 | 21 | 48.2 | <=19.2 | ~2.5 | 
O=C(OCCn1cnc([N+](=O)[O-])c1)c1cnn(-c2ccc(Br)cc2)c1 | 18.6 | 15 | 90.4 | 69.3 | 4.6 | 4.86 |  |  | 
COc1ccc(-n2cc(C(=O)OCCn3cnc([N+](=O)[O-])c3)cn2)cc1 | 24.4 | 18.8 | 141 | 211 | 11.1 | 5.78 |  |  | 
O=C(OCCn1cnc([N+](=O)[O-])c1)c1cnn(-c2ccc(Cl)cc2)c1 | 10.3 | 4.8 | 177 | 195 | 40.3 | 17 |  |  | ~2
O=C(OCCn1cnc([N+](=O)[O-])c1)c1cnn(-c2cc(Cl)cc(Cl)c2)c1 | 4.4 | 13.8 | 164 | 266 | 19.2 | 37 | <=19.2 |  | 
O=C(OCCn1cnc([N+](=O)[O-])c1)c1cnn(-c2ccccc2)c1 | 12.6 | 7.5 | 98 | 236 | 31.4 | 7.7 |  |  | 
O=C(OCCn1cnc([N+](=O)[O-])c1)c1cnn(-c2cccc(Br)c2)c1 | 2.1 | 5.2 | 111 | 148 | 28.1 | 53.8 | <=19.2 | ~2.5 | 
O=C(OCCn1cnc([N+](=O)[O-])c1)c1cnn(-c2cccc(F)c2)c1 | 18 | 18.2 | 100 | 185 | 10.1 | 5.58 |  |  | 
O=C(OCCn1cnc([N+](=O)[O-])c1)c1cnn(-c2cccc(Cl)c2)c1 | 8 | 10.3 | 84.9 | 218 | 21 | 10.5 |  |  | 
Cc1ncc([N+](=O)[O-])n1CCO [METRONIDAZOLE] | 39.7 | 4.9 | 286 | 666 | 136 | 7.19 |  |  | 
